US20130040882A1, “USE OF FIBROBLAST GROWTH FACTOR FRAGMENTS” (NOVARTIS AG, priority 2003, published 2013)

System: uterine gene expression
Assay: Gene expression profiling (HGU133A) in the uterus of ovariectomized monkeys treated with estradiol, tamoxifen or raloxifene
Assay type: in vivo, cynomolgus monkeys (Macaca fascicularis)
Conditions: uterus, OVX monkeys

O=C(c1ccc(OCCN2CCCCC2)cc1)c1c(-c2ccc(O)cc2)sc2cc(O)ccc12 [raloxifene]
2.1 fold: Fold change relative to OVX: Fibrillin 1 (Marfan syndrome) (entry with OVX average 124)
2.0 fold: Fold change relative to OVX: Collagen, type III, alpha 1 (Ehlers-Danlos syndrome type IV, autosomal dominant) (entry with OVX average 3445)
1.7 fold: Fold change relative to SHAM control: Nidogen (enactin) | Fold change relative to SHAM control: Thioredoxin interacting protein | Fold change relative to OVX: Fibronectin 1 (entry with OVX average 648)
1.2 fold: Fold change relative to OVX: Bone morphogenetic protein 1 (entry with OVX average 79) | Fold change relative to OVX: Solute carrier family 2 (facilitated glucose/fructose transporter), member 5 (entry with OVX average 171) | Fold change relative to OVX: Cyclin-dependent kinase inhibitor 1C (p57, Kip2) (entry with OVX average 527) | Fold change relative to OVX: Collagen, type IV, alpha 1 (entry with OVX average 690) | Fold change relative to OVX: ATP synthase, H+ transporting, mitochondrial F0 complex, subunit c (subunit 9) isoform 3 (entry with OVX average 811) | Fold change relative to OVX: ATP synthase, H+ transporting, mitochondrial F0 complex, subunit c (subunit 9) isoform 3 (entry with OVX average 1007) | Fold change relative to SHAM control: Insulin-like growth factor 1 (somatomedin C) (entry with SHAM average 581) | Fold change relative to SHAM control: Fibronectin 1 (entry with SHAM average 1089)
1.5 fold: Fold change relative to OVX: Insulin-like growth factor 1 (somatomedin C) (entry with OVX average 102) | Fold change relative to OVX: Fibrillin 1 (Marfan syndrome) (entry with OVX average 874)
1.0 fold: Fold change relative to SHAM control: Histone H2A.F/Z variant | Fold change relative to OVX: Solute carrier family 2 (facilitated glucose/fructose transporter), member 5 (entry with OVX average 176) | Fold change relative to OVX: H3 histone, family 3A (entry with OVX average 9692) | Fold change relative to SHAM control: Cyclin-dependent kinase inhibitor 1C (p57, Kip2) (entry with SHAM average 201) | Fold change relative to SHAM control: Collagen, type I, alpha 2 (entry with SHAM average 493) | Fold change relative to SHAM control: Fibronectin 1 (entry with SHAM average 920) | Fold change relative to SHAM control: Fibrillin 1 (Marfan syndrome) (entry with SHAM average 1388) | Fold change relative to SHAM control: Collagen, type III, alpha 1 (Ehlers-Danlos syndrome type IV, autosomal dominant) (entry with SHAM average 7354) | Fold change relative to SHAM control: H3 histone, family 3A (entry with SHAM average 10239)
3.2 fold: Fold change relative to OVX: Collagen, type I, alpha 2 (entry with OVX average 154)
0.9 fold: Fold change relative to OVX: Insulin receptor (Table 46) | Fold change relative to OVX: Insulin receptor (Table 51) | Fold change relative to OVX: Cyclin-dependent kinase inhibitor 1C (p57, Kip2) (entry with OVX average 224) | Fold change relative to OVX: H3 histone, family 3A (entry with OVX average 9495) | Fold change relative to SHAM control: Fibronectin 1 (entry with SHAM average 100) | Fold change relative to SHAM control: ATP synthase, H+ transporting, mitochondrial F0 complex, subunit c (subunit 9) isoform 3 (entry with SHAM average 1045) | Fold change relative to SHAM control: Fibronectin 1 (entry with SHAM average 1288) | Fold change relative to SHAM control: ATP synthase, H+ transporting, mitochondrial F0 complex, subunit c (subunit 9) isoform 3 (entry with SHAM average 1355) | Fold change relative to SHAM control: H3 histone, family 3A (entry with SHAM average 9408)
0.7 fold: Fold change relative to SHAM control: G1 to S phase transition 1 | Fold change relative to SHAM control: Growth associated protein 43 | Fold change relative to SHAM control: Insulin-like growth factor binding protein 2, 36 kda | Fold change relative to SHAM control: Osteoglycin (osteoinductive factor, mimecan) | Fold change relative to SHAM control: Pituitary tumour-transforming 1 interacting protein | Fold change relative to SHAM control: Serine (or cysteine) proteinase inhibitor, clade H (heat shock protein 47), member 1, (collagen binding protein 1) | Fold change relative to SHAM control: Stem cell growth factor; lymphocyte secreted C-type lectin | Fold change relative to SHAM control: Bone morphogenetic protein 1 (entry with SHAM average 143) | Fold change relative to SHAM control: Insulin-like growth factor 1 (somatomedin C) (entry with SHAM average 226) | Fold change relative to SHAM control: Solute carrier family 2 (facilitated glucose/fructose transporter), member 5 (entry with SHAM average 317) | Fold change relative to SHAM control: Collagen, type IV, alpha 1 (entry with SHAM average 436) | Fold change relative to SHAM control: Collagen, type IV, alpha 1 (entry with SHAM average 1143) | Fold change relative to SHAM control: Collagen, type III, alpha 1 (Ehlers-Danlos syndrome type IV, autosomal dominant) (entry with SHAM average 2992)
1.8 fold: Fold change relative to OVX: Collagen, type IV, alpha 1 (entry with OVX average 182)
1.4 fold: Fold change relative to SHAM control: Insulin receptor (Table 51) | Fold change relative to OVX: Bone morphogenetic protein 1 (entry with OVX average 93) | Fold change relative to SHAM control: Cyclin-dependent kinase inhibitor 1C (p57, Kip2) (entry with SHAM average 459)
2.2 fold: Fold change relative to OVX: Insulin-like growth factor 1 (somatomedin C) (entry with OVX average 156) | Fold change relative to OVX: Fibronectin 1 (entry with OVX average 419) | Fold change relative to OVX: Fibronectin 1 (entry with OVX average 586) | Fold change relative to OVX: Collagen, type I, alpha 2 (entry with OVX average 2757)
1.1 fold: Fold change relative to SHAM control: Insulin-like growth factor binding protein 5 | Fold change relative to SHAM control: SPARC-like 1 (mast9, hevin) | Fold change relative to SHAM control: Testis Enhanced Gene Transcript (Bax Inhibitor 1) | Fold change relative to OVX: Cyclin-dependent kinase inhibitor 1C (p57, Kip2) (entry with OVX average 762) | Fold change relative to SHAM control: Fibrillin 1 (Marfan syndrome) (entry with SHAM average 236) | Fold change relative to SHAM control: Fibronectin 1 (entry with SHAM average 1301)
1.9 fold: Fold change relative to OVX: Fibronectin 1 (entry with OVX average 757) | Fold change relative to OVX: Collagen, type III, alpha 1 (Ehlers-Danlos syndrome type IV, autosomal dominant) (entry with OVX average 1084)
1.3 fold: Fold change relative to SHAM control: Cyclin-dependent kinase inhibitor 1C (p57, Kip2) (entry with SHAM average 660)
2.3 fold: Fold change relative to OVX: Fibronectin 1 (entry with OVX average 39) | Fold change relative to OVX: Insulin-like growth factor 1 (somatomedin C) (entry with OVX average 310)
0.6 fold: Fold change relative to SHAM control: Heparan sulfate proteoglycan 2 (perlecan) | Fold change relative to SHAM control: Bone morphogenetic protein 1 (entry with SHAM average 205) | Fold change relative to SHAM control: Solute carrier family 2 (facilitated glucose/fructose transporter), member 5 (entry with SHAM average 291)
0.8 fold: Fold change relative to SHAM control: Fibulin 1 | Fold change relative to SHAM control: H2A histone family, member Y | Fold change relative to SHAM control: Intercrine-alpha, mrna sequence | Fold change relative to SHAM control: Laminin, beta 1 | Fold change relative to SHAM control: Latent transforming growth factor beta binding protein 1 | Fold change relative to SHAM control: Peroxiredoxin 1 | Fold change relative to SHAM control: Procollagen C-endopeptidase enhancer | Fold change relative to SHAM control: Procollagen-proline, 2-oxoglutarate 4-dioxygenase (proline 4-hydroxylase), alpha polypeptide II | Fold change relative to SHAM control: SET domain, bifurcated 1 | Fold change relative to SHAM control: Secreted protein, acidic, cysteine-rich (osteonectin) | Fold change relative to SHAM control: Solute carrier family 22 (organic cation transporter), member 1-like | Fold change relative to SHAM control: Solute carrier family 25 (mitochondrial carrier; adenine nucleotide translocator), member 5 | Fold change relative to SHAM control: Tenascin C (hexabrachion) | Fold change relative to SHAM control: Transforming growth factor, beta-induced, 68 kda | Fold change relative to SHAM control: Ubiquinol-cytochrome c reductase, Rieske iron-sulfur polypeptide 1 | Fold change relative to SHAM control: Insulin-like growth factor 1 (somatomedin C) (entry with SHAM average 417) | Fold change relative to SHAM control: Collagen, type I, alpha 2 (entry with SHAM average 7758)
0.2 fold: Fold change relative to SHAM control: Matrix metalloproteinase 19
